In brackets after ≈: the same amount, converted by molar mass. One block for each compound: values may come before it.
Legend:
Assay type in all cases: functional
Staphylococcus aureus [1] = test: Antibacterial activity against Staphylococcus aureus MTCC 96 incubated for 24 hrs at 37 degC by well diffusion method; settings: MTCC 96, 24 h
Bacillus subtilis [2] = test: Antibacterial activity against Bacillus subtilis MTCC 121 incubated for 24 hrs at 37 degC by well diffusion method; settings: MTCC 121, 24 h
Staphylococcus aureus [3] = test: Antibacterial activity against Staphylococcus aureus MLS16 MTCC 2940 incubated for 24 hrs at 37 degC by well diffusion method; settings: MLS16 MTCC 2940, 24 h
Micrococcus luteus [4] = test: Antibacterial activity against Micrococcus luteus MTCC 2470 incubated for 24 hrs at 37 degC by well diffusion method; settings: MTCC 2470, 24 h
Raoultella planticola [5] = test: Antibacterial activity against Klebsiella planticola MTCC 530 incubated for 24 hrs at 37 degC by well diffusion method; settings: MTCC 530, 24 h
Escherichia coli [6] = test: Antibacterial activity against Escherichia coli MTCC 739 incubated for 24 hrs at 37 degC by well diffusion method; settings: MTCC 739, 24 h
Pseudomonas aeruginosa = test: Antibacterial activity against Pseudomonas aeruginosa MTCC 2453 incubated for 24 hrs at 37 degC by well diffusion method; settings: MTCC 2453, 24 h
Candida albicans [7] = test: Antifungal activity against Candida albicans MTCC 183 incubated for 24 hrs at 30 degC by well diffusion method; settings: MTCC 183, 24 h
Candida albicans [8] = test: Antifungal activity against Candida albicans MTCC 227 incubated for 24 hrs at 30 degC by well diffusion method; settings: MTCC 227, 24 h
Candida albicans [9] = test: Antifungal activity against Candida albicans MTCC 854 incubated for 24 hrs at 30 degC by well diffusion method; settings: MTCC 854, 24 h
Candida albicans [10] = test: Antifungal activity against Candida albicans MTCC 1637 incubated for 24 hrs at 30 degC by well diffusion method; settings: MTCC 1637, 24 h
Candida albicans [11] = test: Antifungal activity against Candida albicans MTCC 3017 incubated for 24 hrs at 30 degC by well diffusion method; settings: MTCC 3017, 24 h
Candida albicans [12] = test: Antifungal activity against Candida albicans MTCC 3018 incubated for 24 hrs at 30 degC by well diffusion method; settings: MTCC 3018, 24 h
Candida albicans [13] = test: Antifungal activity against Candida albicans MTCC 3958 incubated for 24 hrs at 30 degC by well diffusion method; settings: MTCC 3958, 24 h
Candida albicans [14] = test: Antifungal activity against Candida albicans MTCC 4748 incubated for 24 hrs at 30 degC by well diffusion method; settings: MTCC 4748, 24 h
Candida albicans [15] = test: Antifungal activity against Candida albicans MTCC 7315 incubated for 24 hrs at 30 degC by well diffusion method; settings: MTCC 7315, 24 h
Candida parapsilosis [16] = test: Antifungal activity against Candida parapsilosis MTCC 1744 incubated for 24 hrs at 30 degC by well diffusion method; settings: Lodderomyces parapsilosis, MTCC 1744, 24 h
[Candida] aaseri [17] = Antifungal activity against Candida aaseri MTCC 1962 incubated for 24 hrs at 30 degC by well diffusion method; settings: Yamadazyma aaseri, MTCC 1962, 24 h
Nakaseomyces glabratus [18] = test: Antifungal activity against Candida glabrata MTCC 3019 incubated for 24 hrs at 30 degC by well diffusion method; settings: MTCC 3019, 24 h
Pichia kudriavzevii [19] = test: Antifungal activity against Candida krusei MTCC 3020 incubated for 24 hrs at 30 degC by well diffusion method; settings: MTCC 3020, 24 h
Pichia sporocuriosa [20] = test: Antifungal activity against Issatchenkia hanoiensis MTCC 4755 incubated for 24 hrs at 30 degC by well diffusion method; settings: MTCC 4755, 24 h
Staphylococcus aureus [21] = test: Bactericidal activity against Staphylococcus aureus MTCC 96 incubated for 24 hrs; settings: MTCC 96, 24 h
Bacillus subtilis [22] = test: Bactericidal activity against Bacillus subtilis MTCC 121 incubated for 24 hrs; settings: MTCC 121, 24 h
Staphylococcus aureus [23] = test: Bactericidal activity against Staphylococcus aureus MLS16 MTCC 2940 incubated for 24 hrs; settings: MLS16 MTCC 2940, 24 h
Micrococcus luteus [24] = test: Bactericidal activity against Micrococcus luteus MTCC 2470 incubated for 24 hrs; settings: MTCC 2470, 24 h
Raoultella planticola [25] = test: Bactericidal activity against Klebsiella planticola MTCC 530 incubated for 24 hrs; settings: MTCC 530, 24 h
Escherichia coli [26] = test: Bactericidal activity against Escherichia coli MTCC 739 incubated for 24 hrs; settings: MTCC 739, 24 h
Candida albicans [27] = test: Fungicidal activity against Candida albicans MTCC 183 incubated for 24 hrs; settings: MTCC 183, 24 h
Candida albicans [28] = test: Fungicidal activity against Candida albicans MTCC 227 incubated for 24 hrs; settings: MTCC 227, 24 h
Candida albicans [29] = test: Fungicidal activity against Candida albicans MTCC 854 incubated for 24 hrs; settings: MTCC 854, 24 h
Candida albicans [30] = test: Fungicidal activity against Candida albicans MTCC 1637 incubated for 24 hrs; settings: MTCC 1637, 24 h
Candida albicans [31] = test: Fungicidal activity against Candida albicans MTCC 3017 incubated for 24 hrs; settings: MTCC 3017, 24 h
Candida albicans [32] = test: Fungicidal activity against Candida albicans MTCC 3018 incubated for 24 hrs; settings: MTCC 3018, 24 h
Candida albicans [33] = test: Fungicidal activity against Candida albicans MTCC 3958 incubated for 24 hrs; settings: MTCC 3958, 24 h
Candida albicans [34] = test: Fungicidal activity against Candida albicans MTCC 4748 incubated for 24 hrs; settings: MTCC 4748, 24 h
Candida albicans [35] = test: Fungicidal activity against Candida albicans MTCC 7315 incubated for 24 hrs; settings: MTCC 7315, 24 h
Candida parapsilosis [36] = test: Fungicidal activity against Candida parapsilosis MTCC 1744 incubated for 24 hrs; settings: Lodderomyces parapsilosis, MTCC 1744, 24 h
[Candida] aaseri [37] = Fungicidal activity against Candida aaseri MTCC 1962 incubated for 24 hrs; settings: Yamadazyma aaseri, MTCC 1962, 24 h
Nakaseomyces glabratus [38] = test: Fungicidal activity against Candida glabrata MTCC 3019 incubated for 24 hrs; settings: MTCC 3019, 24 h
Pichia kudriavzevii [39] = test: Fungicidal activity against Candida krusei MTCC 3020 incubated for 24 hrs; settings: MTCC 3020, 24 h
Pichia sporocuriosa [40] = test: Fungicidal activity against Issatchenkia hanoiensis MTCC 4755 incubated for 24 hrs; settings: MTCC 4755, 24 h

MIC (Staphylococcus aureus [1]): > 250 µg/mL
MIC (Bacillus subtilis [2]): > 250 µg/mL
MIC (Staphylococcus aureus [3]): 31.2 µg/mL (≈ 144 µM)
MIC (Micrococcus luteus [4]): 3.9 µg/mL (≈ 17.9 µM)
MIC (Escherichia coli [6]): 15.6 µg/mL (≈ 71.8 µM)
MIC (Pseudomonas aeruginosa): > 250 µg/mL
MIC (Candida albicans [7]): 15.6 µg/mL (≈ 71.8 µM)
MIC (Candida albicans [8]): 31.2 µg/mL (≈ 144 µM)
MIC (Candida albicans [9]): 31.2 µg/mL (≈ 144 µM)
MIC (Candida albicans [10]): 15.6 µg/mL (≈ 71.8 µM)
MIC (Candida albicans [11]): 15.6 µg/mL (≈ 71.8 µM)
MIC (Candida albicans [12]): 7.8 µg/mL (≈ 35.9 µM)
MIC (Candida albicans [13]): 15.6 µg/mL (≈ 71.8 µM)
MIC (Candida albicans [14]): 31.2 µg/mL (≈ 144 µM)
MIC (Candida albicans [15]): 31.2 µg/mL (≈ 144 µM)
MIC (Candida parapsilosis [16]): 62.5 µg/mL (≈ 288 µM)
MIC ([Candida] aaseri [17]): 15.6 µg/mL (≈ 71.8 µM)
MIC (Nakaseomyces glabratus [18]): 7.8 µg/mL (≈ 35.9 µM)
MIC (Pichia kudriavzevii [19]): 15.6 µg/mL (≈ 71.8 µM)
MIC (Pichia sporocuriosa [20]): 15.6 µg/mL (≈ 71.8 µM)
Structure (SMILES): CCCCCCCCC[C@@H](O)[C@@H](N)CO
MIC (Raoultella planticola [5]): 15.6 µg/mL (≈ 71.8 µM)
MBC (Staphylococcus aureus [21]): > 250 µg/mL
MBC (Bacillus subtilis [22]): > 250 µg/mL
MBC (Staphylococcus aureus [23]): 31.2 µg/mL (≈ 144 µM)
MBC (Micrococcus luteus [24]): 7.8 µg/mL (≈ 35.9 µM)
MBC (Raoultella planticola [25]): 31.2 µg/mL (≈ 144 µM)
MBC (Escherichia coli [26]): 31.2 µg/mL (≈ 144 µM)
MFC (Candida albicans [27]): 15.6 µg/mL (≈ 71.8 µM)
MFC (Candida albicans [28]): 62.5 µg/mL (≈ 288 µM)
MFC (Candida albicans [29]): 31.2 µg/mL (≈ 144 µM)
MFC (Candida albicans [30]): 15.6 µg/mL (≈ 71.8 µM)
MFC (Candida albicans [31]): 31.2 µg/mL (≈ 144 µM)
MFC (Candida albicans [32]): 15.6 µg/mL (≈ 71.8 µM)
MFC (Candida albicans [33]): 31.2 µg/mL (≈ 144 µM)
MFC (Candida albicans [34]): 31.2 µg/mL (≈ 144 µM)
MFC (Candida albicans [35]): 62.5 µg/mL (≈ 288 µM)
MFC (Candida parapsilosis [36]): 62.5 µg/mL (≈ 288 µM)
MFC ([Candida] aaseri [37]): 31.2 µg/mL (≈ 144 µM)
MFC (Nakaseomyces glabratus [38]): 7.8 µg/mL (≈ 35.9 µM)
MFC (Pichia kudriavzevii [39]): 31.2 µg/mL (≈ 144 µM)
MFC (Pichia sporocuriosa [40]): 15.6 µg/mL (≈ 71.8 µM)

MIC (Staphylococcus aureus [1]): > 250 µg/mL
MIC (Bacillus subtilis [2]): > 250 µg/mL
MIC (Staphylococcus aureus [3]): > 250 µg/mL
MIC (Micrococcus luteus [4]): > 250 µg/mL
MIC (Escherichia coli [6]): > 250 µg/mL
MIC (Pseudomonas aeruginosa): > 250 µg/mL
Structure (SMILES): CCCCCCCCC[C@@H](O)[C@H](CO)n1cc(-c2ccc3cc(OC)ccc3c2)nn1
MIC (Raoultella planticola [5]): > 250 µg/mL

Reference: ChEMBL document CHEMBL3822398, “Design, synthesis and in vitro biological evaluation of short-chain C12-sphinganine and its 1,2,3-triazole analogs as potential antimicrobial and anti-biofilm agents” (Eur J Med Chem, 2016)
